Data taken from patent US20150250166A1, “NOOTKATONE AS AN INSECTICIDE AND INSECT REPELLENT” (ALLYLIX, INC., priority 2012, published 2015).

Experiments:
[1] = system: adult bed bugs (Cimex lectularius); test: Bed bug repellency, treated versus untreated filter paper halves in Petri dish chamber; assay type: in vivo; conditions: for Repellency (%) Treatment Group / bed bugs on Nootkatone treatment filter paper (count, of 50) / Repellency (summary of bedbug repellency): 0.1% BHT; for Repellency (summary of bedbug repellency): Day 1
[2] = system: adult cat fleas (Ctenocephalides felis); test: Cat flea repellency, treated versus untreated paper towel halves in payliner; assay type: in vivo; conditions: for Percent Repellency (corrected for isopropanol control) / cat fleas on 10% Nootkatone-treated paper towel, average count of five trials (of 10): 10% nootkatone, 0.1% BHT in isopropanol
Protocol: A formulation, containing 10% nootkatone, 0.1% butylated hydroxytoluene (BHT) in isopropanol was tested for efficacy for repelling adult cat fleas (Ctenocephalides felis). Equal amounts of 10% nootkatone solution, stored at ambient temperature and humidity, were applied to five semi-circular pieces of paper towels, arranged so that they were evenly spaced on a sheet of aluminum foil, until sufficiently wet to the touch. Five untreated semi-circular pieces were marked with the letter “c”, for control, on both sides in pencil or solvent resistant ink. Each of the semi-circular pieces of paper towel had the diameter of a 5-gallon payliner. Immediately after spraying the paper towels with the nootkatone solution, the treated towels were placed in 5 5-gallon payliners. The untreated semi-circular paper towels were also placed in the payliners, with the flat sides of the semi-circle side-by-side with those of the treated pieces, so that the bottoms of the payliners were completely covered with paper towel, half treated and half untreated. Five additional payliners with one semi-circular paper towel treated with isopropyl alcohol and the other untreated served as controls. A 9 dram vial, containing 10 cat fleas (El Labs Inc (Soquel, Calif.)) was emptied onto each of the untreated paper towels in the payliners (total of 10 payliners). The distribution of the cat fleas on the control vs. treated paper towels was recorded at 0.5, 1, 1.5, 2, and 24 hours. Observations were made quietly to minimize the disturbance to the fleas by the observer. The containers were kept at ambient temperature and humidity for the duration of the study. The repellency was calculated from the following equation: R=[(C−T)/C]*100, where R is the % repellency, C is the fraction of fleas on the isopropanol-treated paper towel pieces, and T is the fraction of fleas on the nootkatone-treated paper towel pieces.

[3] = 0.50% nootkatone in acetone, Day 1, 0.5 hour

C=C(C)[C@@H]1CCC2=CC(=O)C[C@@H](C)[C@]2(C)C1 [nootkatone, 4,4a,5,6,7,8-hexahydro-6-isopropenyl-4,4a-dimethyl-2(3H)-naphtalenone]
Repellency (%) Treatment Group ([1]; 0.01% nootkatone in acetone, Day 1, 1.0 hour): 66.0% | bed bugs on Nootkatone treatment filter paper (count, of 50) ([1]; 0.01% nootkatone in acetone, Day 1, 24.0 hour): 21 | bedbug repellency, in words ([1]; 0.01% nootkatone in acetone, day 1 and day 2, statistically significant versus the control): moderate bedbug repellency | Repellency (%) Treatment Group ([1]; 0.10% nootkatone in acetone, Day 1, 0.5 hour): 94.0% | Repellency (%) Treatment Group ([1]; 0.10% nootkatone in acetone, Day 1, 2.0 hour): 94.0% | bedbug repellency, in words ([1]; 0.1% nootkatone in acetone, day one): good bedbug repellent for one day | Repellency (%) Treatment Group [1, 3]: 100.0% | bed bugs on Nootkatone treatment filter paper (count, of 50) [1, 3]: 0 | bed bugs on Nootkatone treatment filter paper (count, of 50) ([1]; 0.50% nootkatone in acetone, Day 1, Average of time points): 0.0 | Repellency (%) Treatment Group ([1]; 0.50% nootkatone in acetone, Day 2, 1.0 hour): 88.0% | bed bugs on Nootkatone treatment filter paper (count, of 50) ([1]; 0.50% nootkatone in acetone, Day 2, Average of time points): 4.2 | bedbug repellency, in words ([1]; 0.5% nootkatone in acetone, two days): good bedbug repellent for two days | Repellency (summary of bedbug repellency) ([1]; Nootkatone 0.010% in acetone): 66.0% | Repellency (summary of bedbug repellency) ([1]; Nootkatone 0.10% in acetone): 93.6% | cat flea repellency, in words ([2]; 10% nootkatone in isopropyl alcohol): does not repel cat fleas | Percent Repellency (corrected for isopropanol control) ([2]; 0.5 hr): −40.0% | cat fleas on 10% Nootkatone-treated paper towel, average count of five trials (of 10) ([2]; 0.5 hr): 5.6 | Percent Repellency (corrected for isopropanol control) ([2]; 1 hr): 9.5% | cat fleas on 10% Nootkatone-treated paper towel, average count of five trials (of 10) ([2]; 1 hr): 3.8 | Percent Repellency (corrected for isopropanol control) ([2]; 1.5 hr): 9.5% | cat fleas on 10% Nootkatone-treated paper towel, average count of five trials (of 10) ([2]; 1.5 hr): 3.8 | Percent Repellency (corrected for isopropanol control) ([2]; 2 hr): 20.0% | cat fleas on 10% Nootkatone-treated paper towel, average count of five trials (of 10) ([2]; 2 hr): 3.2 | Percent Repellency (corrected for isopropanol control) ([2]; 24 hr): 38.9% | cat fleas on 10% Nootkatone-treated paper towel, average count of five trials (of 10) ([2]; 24 hr): 2.2
